Experimental findings from ChEMBL document CHEMBL3804811 (J Med Chem, 2016) are described below.

A short description of series [1]: Tmax in Harlan nu/nu mouse at 10 mg/kg, po administered as single dose by LC-MS/MS analysis. In kind it is ADME, organism-based. As to conditions: in vivo.
Series [2] is described as follows: Half life in Harlan nu/nu mouse at 10 mg/kg, po administered as single dose by LC-MS/MS analysis. In kind it is ADME, organism-based. As to conditions: in vivo.
In series [3] the target is ALK tyrosine kinase receptor (Homo sapiens, UniProt Q9UM73).
Description: Inhibition of recombinant ALK (unknown origin) in presence of gamma33-ATP
The nature of series [4]: Intrinsic clearance in rat hepatocytes at […] after 10 to 90 mins by LC-MS/MS analysis. In kind it is ADME, cell-based, Hepatocyte. The note with it: read-out: CLH.
The nature of series [5]: AUC (infinity) in Harlan nu/nu mouse at 10 mg/kg, po administered as single dose by LC-MS/MS analysis. In kind it is ADME, organism-based. More on the design: dose 10 mg/kg, route oral, time infinity. The note with it: in vivo.
A short description of series [6]: Solubility of compound at pH 7 buffer. In kind it is physicochemical.
The nature of series [7]: Half life in Harlan nu/nu mouse at 10 mg/kg, iv administered as single dose by LC-MS/MS analysis. In kind it is ADME, organism-based. The note with it: in vivo.
A further series addresses Insulin receptor (Homo sapiens, UniProt P06213). Kind of series: Inhibition of IR (unknown origin) in presence of gamma33-ATP.
The nature of series [8]: Intrinsic clearance in human liver microsomes at […] preincubated for 5 mins followed by NADPH addition measured after 5 to 30 mins by LC-MS/MS analysis. In kind it is ADME. As to conditions: read-out: CLH.
Series [9] in a line: Antiproliferative activity against human KARPAS299 cells incubated for 72 hrs by cell titer-glo assay. The note with it: KARPAS-299, 72 h.
Series [10] is described as follows: Apparent permeability from basolateral to apical side in human Caco2 cells at 2.5 mg/ml after 2 hrs by reversed-phase HPLC method. The note with it: Caco-2. In kind it is ADME, cell-based.
Series [11] is described as follows: Volume of distribution at steady state in Harlan nu/nu mouse at 10 mg/kg, iv administered as single dose by LC-MS/MS analysis. The note with it: in vivo.
Series [12] in a line: Clearance in Harlan nu/nu mouse at 10 mg/kg, iv administered as single dose by LC-MS/MS analysis. In kind it is ADME, organism-based. The note with it: in vivo.
Series [13] in a line: Cmax in Harlan nu/nu mouse at 10 mg/kg, iv administered as single dose by LC-MS/MS analysis. In kind it is ADME, organism-based. The arrangement: dose 10 mg/kg, route intravenous. As to conditions: in vivo.
Series [14] is described as follows: Apparent permeability from apical to basolateral side in human Caco2 cells at 2.5 mg/ml after 2 hrs by reversed-phase HPLC method. In kind it is ADME, cell-based. As to conditions: Caco-2.
Series [15] in a line: Oral bioavailability in Harlan nu/nu mouse at 10 mg/kg administered as single dose by LC-MS/MS analysis. The note with it: in vivo. In kind it is ADME, organism-based.
A short description of series [16]: Cmax in Harlan nu/nu mouse at 10 mg/kg, po administered as single dose by LC-MS/MS analysis. In kind it is ADME, organism-based. As to conditions: in vivo. More on the design: dose 10 mg/kg, route oral.
The nature of series [17]: AUC (infinity) in Harlan nu/nu mouse at 10 mg/kg, iv administered as single dose by LC-MS/MS analysis. As to conditions: in vivo. More on the design: dose 10 mg/kg, time infinity, route intravenous. In kind it is ADME, organism-based.

Structures are written as SMILES. ≈ marks a conversion by molar mass, not a printed value.

Sequence of Insulin receptor (P06213 28-758 limits assumed): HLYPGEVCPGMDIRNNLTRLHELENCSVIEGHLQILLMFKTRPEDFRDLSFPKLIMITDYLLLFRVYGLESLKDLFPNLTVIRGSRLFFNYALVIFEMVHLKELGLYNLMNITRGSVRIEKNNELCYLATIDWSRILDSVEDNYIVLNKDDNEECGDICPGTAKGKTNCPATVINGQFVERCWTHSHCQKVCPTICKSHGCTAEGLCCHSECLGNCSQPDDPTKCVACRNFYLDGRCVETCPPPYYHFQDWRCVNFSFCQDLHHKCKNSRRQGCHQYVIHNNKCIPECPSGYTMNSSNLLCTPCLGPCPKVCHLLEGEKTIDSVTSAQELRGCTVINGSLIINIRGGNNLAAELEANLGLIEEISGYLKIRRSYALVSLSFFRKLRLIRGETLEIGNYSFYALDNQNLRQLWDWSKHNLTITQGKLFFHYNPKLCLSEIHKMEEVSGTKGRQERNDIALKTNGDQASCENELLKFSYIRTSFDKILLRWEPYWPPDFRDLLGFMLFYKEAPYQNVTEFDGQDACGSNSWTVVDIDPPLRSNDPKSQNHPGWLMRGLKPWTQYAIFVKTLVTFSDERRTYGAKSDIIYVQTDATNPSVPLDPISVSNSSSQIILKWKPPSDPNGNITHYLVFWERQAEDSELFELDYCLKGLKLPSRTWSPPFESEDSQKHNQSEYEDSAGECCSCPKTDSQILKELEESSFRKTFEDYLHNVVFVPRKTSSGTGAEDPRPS
Sequence of Insulin receptor (P06213 763-1382 limits assumed): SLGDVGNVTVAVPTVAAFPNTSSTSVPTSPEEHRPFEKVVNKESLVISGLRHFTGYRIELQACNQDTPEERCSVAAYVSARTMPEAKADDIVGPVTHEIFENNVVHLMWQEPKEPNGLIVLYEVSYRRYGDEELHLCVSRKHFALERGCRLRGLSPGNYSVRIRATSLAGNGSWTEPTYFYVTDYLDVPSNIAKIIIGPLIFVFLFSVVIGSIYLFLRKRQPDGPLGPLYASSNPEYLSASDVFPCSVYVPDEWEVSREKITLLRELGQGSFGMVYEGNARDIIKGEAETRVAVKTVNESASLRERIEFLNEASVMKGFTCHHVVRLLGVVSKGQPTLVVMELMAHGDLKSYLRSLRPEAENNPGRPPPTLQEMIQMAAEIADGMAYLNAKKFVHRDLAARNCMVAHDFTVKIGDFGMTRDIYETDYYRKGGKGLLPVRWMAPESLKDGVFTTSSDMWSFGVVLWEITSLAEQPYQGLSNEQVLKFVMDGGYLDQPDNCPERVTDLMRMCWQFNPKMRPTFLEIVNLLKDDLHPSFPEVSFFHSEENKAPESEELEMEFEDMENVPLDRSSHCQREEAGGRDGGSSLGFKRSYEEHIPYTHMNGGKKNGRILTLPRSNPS
Sequence of ALK tyrosine kinase receptor (Q9UM73 whole entry): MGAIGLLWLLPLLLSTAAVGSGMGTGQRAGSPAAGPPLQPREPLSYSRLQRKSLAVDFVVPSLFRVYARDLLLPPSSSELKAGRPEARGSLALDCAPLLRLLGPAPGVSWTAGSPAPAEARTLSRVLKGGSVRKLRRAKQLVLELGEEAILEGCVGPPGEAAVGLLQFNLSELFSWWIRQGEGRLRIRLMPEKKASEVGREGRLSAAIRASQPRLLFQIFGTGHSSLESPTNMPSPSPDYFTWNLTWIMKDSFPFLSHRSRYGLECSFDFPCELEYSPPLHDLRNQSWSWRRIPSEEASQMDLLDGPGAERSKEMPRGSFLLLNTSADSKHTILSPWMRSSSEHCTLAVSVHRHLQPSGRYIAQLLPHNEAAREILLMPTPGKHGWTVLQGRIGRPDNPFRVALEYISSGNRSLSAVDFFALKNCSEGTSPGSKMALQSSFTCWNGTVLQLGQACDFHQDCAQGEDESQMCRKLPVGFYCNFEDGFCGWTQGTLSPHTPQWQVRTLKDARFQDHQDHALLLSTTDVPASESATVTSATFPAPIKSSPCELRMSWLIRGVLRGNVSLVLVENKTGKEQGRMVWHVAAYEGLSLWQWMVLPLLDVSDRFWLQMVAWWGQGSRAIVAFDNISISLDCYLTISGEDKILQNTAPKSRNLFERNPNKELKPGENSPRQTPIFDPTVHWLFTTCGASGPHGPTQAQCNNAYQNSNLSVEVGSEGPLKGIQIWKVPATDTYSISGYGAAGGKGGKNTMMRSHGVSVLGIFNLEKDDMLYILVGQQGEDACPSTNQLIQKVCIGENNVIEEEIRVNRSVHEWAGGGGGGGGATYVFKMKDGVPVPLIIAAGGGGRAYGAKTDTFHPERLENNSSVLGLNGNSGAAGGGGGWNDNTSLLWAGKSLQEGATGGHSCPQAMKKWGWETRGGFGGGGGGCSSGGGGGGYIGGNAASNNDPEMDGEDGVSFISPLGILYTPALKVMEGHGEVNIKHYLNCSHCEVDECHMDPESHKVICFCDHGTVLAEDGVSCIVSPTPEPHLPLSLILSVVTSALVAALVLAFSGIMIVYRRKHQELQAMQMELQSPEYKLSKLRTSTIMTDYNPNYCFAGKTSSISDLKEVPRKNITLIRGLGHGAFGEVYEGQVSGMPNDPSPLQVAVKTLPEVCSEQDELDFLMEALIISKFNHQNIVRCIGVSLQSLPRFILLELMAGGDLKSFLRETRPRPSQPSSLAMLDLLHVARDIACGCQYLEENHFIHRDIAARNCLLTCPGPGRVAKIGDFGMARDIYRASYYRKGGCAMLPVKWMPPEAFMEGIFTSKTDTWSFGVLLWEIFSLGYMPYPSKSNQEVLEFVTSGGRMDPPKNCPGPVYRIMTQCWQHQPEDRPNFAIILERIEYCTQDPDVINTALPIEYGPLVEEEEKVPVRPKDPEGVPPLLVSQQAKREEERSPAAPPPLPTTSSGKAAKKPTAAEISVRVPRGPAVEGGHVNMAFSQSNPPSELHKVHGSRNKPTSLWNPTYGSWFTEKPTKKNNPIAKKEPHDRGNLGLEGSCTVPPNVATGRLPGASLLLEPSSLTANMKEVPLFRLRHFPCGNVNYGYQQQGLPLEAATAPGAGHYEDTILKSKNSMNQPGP

As for `O=C(Nc1n[nH]c2ccc(Cc3cc(F)cc(F)c3)cc12)c1ccc(CN2CCCCC2)cc1NC1CCOCC1`, the time to peak (Tmax) in series [1] is 0.83 h. The half-life in [2] is 2.25 h; in series [7] it was 1.52 h. Moreover, the IC50 in series [3] worked out at 18 nM; on Insulin receptor, 653 nM; in series [9] it was 38 nM. Besides, the CLint scaled in [4] was 229 mL/min/kg; in series [8], 40 mL/min/kg. Moreover, the area under the curve AUC(0-inf) was determined as 1.51 µM·h in series [5] and 7.97 µM·h in series [17]. The molecule further displayed a solubility in series [6] of 84 µM (≈ 47 µg/mL). Besides, in [10], the Papp B→A at 2 h, 2.5 mg/ml was determined as 1.9 ×10⁻⁶ cm/s. Also, the volume of distribution (Vd) in series [11] is 2.63 L/kg. In [12], this molecule showed a clearance of 32.1 mL/min/kg. Moreover, the results for the highest concentration (Cmax) in [13] and in series [16] were 5.69 µM and 0.36 µM, respectively. The apparent permeability from apical to basolateral (Papp A→B) at 2 h, 2.5 mg/ml in series [14] was found to be 1.1 ×10⁻⁶ cm/s. Moreover, the bioavailability in series [15] came to 18%.
